Laboratory results as given in patent US20210285949A1 (priority 2020, published 2021).
Like-named read-outs stand apart in the source and are kept apart here.

Columns and labels:
[1] = tested on: extreme-critically ill COVID-19 patients with acute respiratory distress syndrome (ARDS); conditions: cited from earlier work
[2] = cited from earlier work
[3] = tested on: mice with CLP-induced sepsis; conditions: pre-treatment, cited from earlier work
[4] = tested on: patients with septic shock and elevated adrenomedullin; assay: AdrenOSS-2 phase II clinical trial; format: in vivo, human
From the text: AdrenOSS-2 is a double-blind, placebo-controlled, randomized, multicenter, proof of concept and dose-finding phase II clinical trial to investigate the safety, tolerability and efficacy of the N-terminal ADM antibody named Adrecizumab in patients with septic shock and elevated adrenomedullin (Geven et al. BMJ Open 2019; 9:e024475). In total, 301 patients with septic shock and bio-ADM concentration >70 pg/mL were randomized (2:1:1) to treatment with a single intravenous infusion over approximately 1 hour with either placebo (n=152), adrecizumab […] (n=72) or Adrecizumab […] (n=77). All-cause mortality within 28 (90) days after inclusion was 25.8% (34.8%). Mean age was 68.4 years and 61% were male. For the per protocol analysis, n=294 patients remained eligible, and 14-day all-cause mortality rate was 18.5%.
Furthermore, different subpopulations of the cohort were analyzed. Main outcomes were 28-day mortality, change in Horovitz Index (PaO2/FiO2) (at 24 h/48 h/72 h), change in SOFA score (at 24 h/48 h/72 h) or change in respiratory SOFA score component (also based on PaO2/FiO2) (at 24 h/48 h/72 h). All p-values are 2-sided and a p-value of 0.20 should be considered significant.

[5] = tested on: endotoxemic rats; conditions: pre-treatment; cited from earlier work

In the case of “Adrecizumab: humanized N-terminal anti-ADM monoclonal antibody, heavy chain SEQ ID NO: 35, light chain SEQ ID NO: 36”, the mortality ([1]; compared with mortality calculated by the SOFA score) is listed as “lower than expected”, the PaO2/FiO2 ([1]; single dose, within 12 days) is listed as “increased” and the “SOFA score and disease severity score” value ([1]; single dose, within 12 days) is listed as “decreased in five out of the seven surviving patients”. For the same substance, the “inflammatory parameters C-reactive protein, procalcitonin, and interleukin-6” value ([1]; single dose) was “decreased”, the “circulating ADM following administration” value ([2]; animal and human data) was “potent, dose-dependent increase” and the “safety and tolerability, serious adverse events” value ([2]; phase I study) was “no serious adverse events were observed”. For the same substance, the renal vascular leakage ([3]; mice with CLP-induced sepsis) was “attenuated”, the 7-day survival ([3]; repeated dose administration (control 0%)) was 40% and the 7-day survival ([3]; single dose administration (control 10%)) was 50%. The “change in Horovitz-Index” value ([4]; Horovitz-Index <170 and mechanical ventilation (n=48), after 24 hours (0.48)) was “trended to be higher”, the “change in SOFA score vs placebo” value ([4]; Horovitz-Index <170 and mechanical ventilation (n=48), after 24 hours, p=0.032) was “significantly lower” and the “change in SOFA score vs placebo” value ([4]; Horovitz-Index <170 and mechanical ventilation (n=48), after 48 hours, p=0.012) was “significantly lower”. The “change in Horovitz-Index, mean increase” value ([4]; Horovitz-Index <170 and mechanical ventilation (n=48), after 48 hours, p=0.09) was 64.2, the “change in SOFA score vs placebo” value ([4]; Horovitz-Index <170 and mechanical ventilation (n=48), after 72 hours, p=0.028) was “significantly lower” and the “change in Horovitz-Index, mean increase” value ([4]; Horovitz-Index <170 and mechanical ventilation (n=48), after 72 hours, p=0.11) was 66.4. The “28-day mortality vs placebo” value ([4]; Horovitz-Index <170 and mechanical ventilation at baseline (n=48), p=0.37) was “trended to be lower”, the “change in SOFA score vs placebo” value ([4]; mechanical ventilation at baseline (n=161), after 24 hours, p=0.002) was “significantly lower” and the “change in respiratory SOFA score vs placebo” value ([4]; mechanical ventilation at baseline (n=161), after 24 hours, p=0.021) was “significantly lower”. The “change in Horovitz-Index” value ([4]; mechanical ventilation at baseline (n=161), after 48 hours, p=0.007) was “significantly higher”, the “change in respiratory SOFA score vs placebo” value ([4]; mechanical ventilation at baseline (n=161), after 48 hours, p=0.011) was “significantly lower” and the “change in SOFA score vs placebo” value ([4]; mechanical ventilation at baseline (n=161), after 48 hours, p=0.109) was “significantly lower”. For the same substance, the “change in respiratory SOFA score vs placebo” value ([4]; mechanical ventilation at baseline (n=161), after 72 hours, p=0.066) was “significantly lower”, the “change in Horovitz-Index” value ([4]; mechanical ventilation at baseline (n=161), after 72 hours, p=0.087) was “significantly higher” and the “change in SOFA score vs placebo” value ([4]; mechanical ventilation at baseline (n=161), after 72 hours, p=0.31) was “trended to be lower”. For the same substance, the “change in Horovitz-Index, mean increase” value ([4]; mechanical ventilation at baseline (n=161), at 24 hours, p=0.155) was 56.2, the “28-day mortality vs placebo” value ([4]; mechanical ventilation at baseline (n=161), p=0.157) was “significantly lower” and the “change in SOFA score vs placebo” value ([4]; shock patients with ALI/ARDS (n=80), after 24 hours, p=0.005) was “significantly lower”. The “change in respiratory SOFA score vs placebo” value ([4]; shock patients with ALI/ARDS (n=80), after 24 hours, p=0.26) was “trended to be lower”, the “change in SOFA score vs placebo” value ([4]; shock patients with ALI/ARDS (n=80), after 48 hours, p=0.025) was “significantly lower” and the “change in respiratory SOFA score vs placebo” value ([4]; shock patients with ALI/ARDS (n=80), after 48 hours, p=0.09) was “significantly lower”. The “change in SOFA score vs placebo” value ([4]; shock patients with ALI/ARDS (n=80), after 72 hours, p=0.38) was “trended to be lower” and the renal vascular leakage [5] was “attenuated”.
